“Also recorded” adds a separate entry of the source.
Key:
[1] = tested on: PBMCs from normal or HCV infected subjects; assay: IFN-α secretion by PBMC with Intron A, Ribavirin or CpG alone or in combination (ELISA); assay type: cell-based, human
From the text: (§1) All oligonucleotide stocks were resuspended in TE buffer at pH 8.0 (OmniPer®; EM Science, Gibbstown, N.J.). Dilutions of various ODNs were made in RPMI 1640 complete media (Gibco BRL, Grand Island, N.Y.) containing 10% heat inactivated, normal human AB serum (Wisent Inc, St. Bruno, QC) and 1% penicillin/streptomycin (Gibco BRL, Grand Island, N.Y.) just prior to their use in cell assays. For the exogenous IFN-α synergy experiments, Intron A (Interferon Alfa-2b, DIN 02223406, Schering Canada Inc., Pointe-Claire, Quebec, Canada) was added to the ODN solutions to give final concentrations of 125 or 1000 IU/ml. Ribavirin (CAS 36791-04-5, Calbiochem, CN Biosciences Inc., La Jolla, Calif., USA) was reconstituted with sterile distilled water to produce a 500 μm stock and diluted in media as described above, to give a final concentration of 5 μm in wells. Cells were incubated at 37° C. with 5% CO2. After 48 h, cell supernatants were collected from each well and frozen at −80° C.
(§2) Peripheral blood mononuclear cells (PBMCs) were purified by centrifugation over Ficoll-Hypaque (Amersham Pharmacia Biotech, Uppsala, Sweden) at 400×g for, 35 min. Cells were resuspended at a concentration of 10×10^6/ml in RPMI complete media containing 10% normal human AB serum (heat inactivated) and 1% penicillin/streptomycin.
(§3) Freshly isolated PBMCs were resuspended at 10×10^6/ml (2× final concentration) and 100 μl of cells were added to each well of a 96 well flat-bottom plate containing an equal volume of ODN solution (2× final desired concentration). A range of concentrations (1, 3, 6 μg/ml) was tested for each ODN. Cells were incubated at 37° C. with 5% CO2. After 48 h, cell supernatants were collected from each well and frozen at −80° C. until assayed.
(§4) IFN-α, IP-10, IL-10 and IFN-levels in supernatants were measured using commercial ELISA Kits (R&D Systems, Minneapolis, Minn., USA; IP-10, Cat# DIP 100, IL-10, Cat# D1000, IFN-g Cat# DIF50 or PBL Biomedical, IFN-α Cat# 4110S). When measured ELISA values were below the detection limit of the kit as specified by the manufacturer, a value equal to the lowest detectable limit was entered into data tables.

[2] = tested on: PBMCs from normal or HCV-infected subjects; assay: IP-10 secretion by PBMC after 48 h with CpG ODN (ELISA); assay type: cell-based, human; conditions: similar in normal subjects and HCV chronic carriers, FIG. 7
Protocol: as §2, §3, §4

[3] = tested on: PBMCs from normal subjects; assay: IFN-α secretion by PBMC from normal subjects after 48 h with CpG ODN (ELISA); assay type: cell-based, human; conditions: for IFN-α secretion level: PBMC from normal volunteers, 48 h, FIG. 1/3; for R, linear regression of number of pDC against amount of IFN-α secreted: normal subjects, pDC number by FACS
From the text: as §1, §2, §3, §4

[4] = tested on: PBMCs from normal or HCV-infected subjects; assay: IFN-γ secretion by PBMC after 48 h with CpG ODN (ELISA); assay type: cell-based, human; conditions: HCV-infected and normal PBMCs similar, FIG. 5/6
Protocol: as §2, §3, §4

[5] = tested on: B cells in PBMCs from HCV-infected or normal donors; assay: B-cell proliferation (3H-thymidine, stimulation index); assay type: cell-based, human; conditions: HCV-infected and normal populations, 5 days, FIGS. 8 and 9
Protocol: as §2
Cells were isolated as described above and resuspended at 1×10^6/ml in complete RPMI media 100 μl of cells were added to each well of round-bottom 96 well plates. ODN solutions (100 μl) were added to wells to give the selected range of final concentrations (1, 3, 6 μg/ml). Cells were cultured for 5 days and then pulsed with ^3H-Thymidine (1 μCi/well) for 18 h, before harvesting onto filter paper for measuring radioactivity. Results are reported as stimulation index (SI) with respect to untreated media control.

[6] = tested on: PBMCs from HCV-infected subjects; assay: IFN-α secretion by PBMC from HCV chronic carriers after 48 h with CpG ODN (ELISA); assay type: cell-based, human; conditions: for R, linear regression of number of pDC against amount of IFN-α secreted: HCV infected subjects, pDC number by FACS; for IFN-α secretion level: PBMC from HCV chronic carriers, 48 h, FIG. 1/3/4
From the text: as §1, §2, §3, §4

[7] = adjuvant to a commercial hepatitis B vaccine, phase I/II; cited from earlier work

Row | Compound | induction of IFN-α secretion ([1]; HCV-infected PBMCs, on their own or together, FIG. 11) | induction of IFN-α secretion ([1]; PBMCs from normal or HCV infected subjects, alone or in combination) | effect on the efficacy of CpG ([1]; combined with CpG ODN) | immunostimulatory activity ([1]; human PBMCs) | endogenous IFN-α production ([1]; in combination with Intron A) | IP-10 secretion level [2] | IFN-α secretion level [3] | R, linear regression of number of pDC against amount of IFN-α secreted [3] | IFN-γ secretion level [4] | B cell stimulation [5] | IFN-α induced relative to the normal level ([6]; HCV chronic carrier PBMC versus normal PBMC, FIG. 1) | R, linear regression of number of pDC against amount of IFN-α secreted [6] | IFN-α secretion level [6] | function as vaccine adjuvant [7] | IFN-α secretion level ([6]; listed as B) | IFN-α secretion level ([6]; listed as Class B) | synergy with exogenous IFN-α for IFN-α secretion ([1]; PBMCs from HCV infected subjects, combination with Intron-A) | IFN-α secretion level ([6]; listed as C)
1 | NC(=O)c1ncn([C@@H]2O[C@H](CO)[C@@H](O)[C@H]2O)n1 [Ribavirin] | Neither Ribavirin nor Intron A, on their own or together, resulted in the induction of IFN-α secretion | Neither commercial Intron-A (IFN-α-2b) nor Ribavirin, alone or in combination, were capable of inducing IFN-α secretion | reduced the efficacy of CpG | no immunostimulatory activity | did not enhance endogenous IFN-α production | – | – | – | – | – | – | – | – | – | – | – | – | –
2 | G-G-GGACGACGTCGTGG-G-G-G-G-G (DNA GGGGACGACGTCGTGGGGGGG; chemistry not given here) [SEQ ID NO. 1, A class CpG ODN] | – | – | – | – | – | Highest levels | very high levels | 0.43 | low levels | poor stimulator of B cells | about 50% | 0.02 | higher levels | – | – | – | – | –
3 | TCGTCGTTTTGTCGTTTTGTCGTT [SEQ ID NO. 2] | – | – | – | – | – | lowest | only low levels | – | moderate amounts | strongly activated B cells | – | – | – | functions well as a vaccine adjuvant | the same as those obtained with the normal PBMCs | lower levels | – | –
4 | TCGTCGTTTTCGGCGGCCGCCG (chemistry not given here) [SEQ ID NO. 4, C class CpG ODN] | – | – | – | – | – | next highest | moderately high levels | 0.58 | high concentrations | strongly activated B cells | – | 0.08 | – | – | – | – | synergy | the same as those obtained with the normal PBMCs; also recorded: higher levels

— patent US7998492B2, “Methods and products related to treatment and prevention of hepatitis C virus infection” (Coley Pharmaceutical Group, Inc., priority 2002, dated 2011)
